Measured values reported in patent publication US20220380371A1, “MLL1 INHIBITORS AND ANTI-CANCER AGENTS” (NOVARTIS AG, priority 2019, published 2022).

Legend:
H3K4me3 in MV4-11 cells = assay: MV4-11 H3K4me3 Cellular ELISA Assay; format: cell-based; conditions: Homo sapiens, MV4-11, 48 h
Procedure: MV4-11 H3K4me3 Cellular ELISA Assay
MV4-11 (ATCC® CRL-9591™) was cultured with RPMI1640 medium (Thermo Fisher Scientific, cat #11875) supplemented with 10% FBS (Thermo Fisher Scientific, cat #10099141) and 50 U/ml Penicillin-Streptomycin (Thermo Fisher Scientific, cat #10378016) in humidified incubator at 37° C., 5% CO2.
200 nL compounds dissolved in DMSO were serially diluted at 1:3 ratio for 12 points starting from 10 mM and dispensed into each wells of cell culture plates (PDL-coated ViewPlate-384 Black, FTC, PerkinElmer, #6007710). 3,750 MV4-11 cells in 40 μL culture medium were seeded into each well and treated with desired concentration for 48 hours. After treatment, wash cells with cold phosphate based buffer (PBS, pH 7.4) and aspirate the remaining PBS buffer. Crude histone lysate was extracted by 40 μL 0.5M HCl for 1 hour in 4° C. following neutralization by adding 32 μL neutralization buffer (0.5M Sodium phosphate dibasic, pH ˜12.5, 1.25 mM Dithiothreitol, Promega #V3151, Protease Inhibitor Cocktail, Sigma #8340) for each well. 5 μL and 20 μL of histone lysate was loaded to ELISA plate (384 Well Plates, PE HB, White, 6005620) for detection of total H3 and H3K4me3, respectively. Shake the plates gently in 4° C. for overnight. After histone binding, plates were washed with 80 μL PBS/T (PBS with 0.05% Tween-20) and blocked with 50 μL 3% BSA diluted in PBS/T per well for 1 hour. Incubate wells with primary antibody for 1 hour at room temperature using anti-H3K4me3 (CST #9727) and anti-total H3 (CST #9715) diluted 1:2000 in 3% BSA. Plates were then washed with PBS/T for 3 times and incubated with horseradish peroxidase (HRP) conjugated secondary antibody (CST #7074, 1:5000) for 1 hour at room temperature. The abundance of H3K4me3 and total H3 were measured by ECL substrates chemiluminescence (Pierce, #34080) on a plate reader (PerkinElmer EnVison 2104 Mutilable Reader). Percentage inhibition was calculated against DMSO control after normalization of H3K4me3 signal to H3 signal for individual samples. The data were then fit to a dose response curve using GraphPad Prism for IC50 calculation.

MV4-11 cells = assay: MV4-11 6-Day Cell Growth CTG (CellTiter-Glo) Assay; format: cell-based; conditions: Homo sapiens, MV4-11, 144 h, MV4-11 cell growth CellTiter-Glo, 6 days
Procedure: MV4-11 6-Day Cell Growth CTG (CellTiter-Glo) Assay
Acute myeloid leukemia cell MV4-11 (ATCC® CRL-9591™) was cultured with RPMI 1640 medium (Thermo Fisher Scientific, cat #11875) supplemented with 10% FBS (Thermo Fisher Scientific, cat #10099141) in humidified incubator at 37° C., 5% CO2. To assess the effect of MLL1 inhibition on cell growth, the compound of the present invention was dissolved in DMSO and serially diluted at 1:3 for 12 points starting from 10 mM then 200 nL for the replicate of each dose per well was dispensed to Viewplate-384 Black (Perkin Elmer). Exponentially growing MV4-11 cells were seeded at the density of 300 cells per well in 40 μL to the plate, so the final compound working concentration starts from 50 μM. After 6 days, 40 μL CellTiter-Glo (Promega, cat #G7573) was added into the cell culture well and luminescence was read with Envision (Perkin Elmer) to determine the viable cells. The percentage inhibition was calculated against the samples treated with DMSO only and the data were used for dose response curve fitting in GraphPad Prism to get the IC50 of representative compound of present invention, which reflects the inhibition of MLL1 activity.

[1] = target: wild type MLL1 four-member complex (MLL1-4C) (Homo sapiens, UniProt Q03164); assay: MLL1 LC-MS Assay; format: biochemical; conditions: read-out: LCMS
Procedure: The compounds of the present disclosure were serially and separately diluted 3-fold in DMSO to obtain a total of eight or twelve concentrations. Then the test compounds at each concentration (120 nL of each) were transferred by Mosquito into white Proxiplate plus 384-well microplate (PerkinElmer). Solutions (6 μL) of 60 nM wild type MLL1 four-member complex (MLL1-4C) and 5 μM SAM in the reaction buffer (20 mM Tris-HCl, pH 8.0, 0.01% Tween 20, 1 mM DTT, 10 mM MgCl2, 0.01% BSA) were added to the wells that were then incubated with the test compound for 20 min. A 6 μL solution of 20 μM of the peptide substrate H3K4me0 (histone H3[1-21]-Biotin) in the reaction buffer was added to initiate each reaction. The final components in the reaction solution include 30 nM MLL1-4C, 2.5 μM SAM, and 10 μM H3K4me0 with varying concentration of the compounds. A positive control consisted of 30 nM MLL1-4C, 2.5 μM SAM, and 10 μM substrate in the absence of the test compound, and a negative control consisted of 2.5 μM SAM, and 10 μM substrate only. Each reaction was incubated at rt for 120 min, then stopped by addition of 3 μL per of quench solution (2.5% TFA with 320 nM d4-SAH). The reaction mixture was centrifuged (Eppendorf centrifuge 5810, Rotor A-4-62) for 2 min at 2000 rpm. The SAH production from the enzymatic assays were monitored by LC-MS/MS on an API 4000 triple quadrupole mass spec with Turbolon Spray (Applied Biosystem) coupled with Prominenece UFLC (Shimazu). The level of SAH production were then normalized based on the values coming from the positive and negative controls to give percent enzyme activities. The data were then fit to a dose response equation using the program Helios (Novartis) to get the IC50 values of the test compounds.

Row | Compound | IC50 (H3K4me3 in MV4-11 cells) | IC50 (MV4-11 cells) | IC50 [1]
1 | Nc1ncnc2c1ncn2Cc1c([C@@H](O)C(F)(F)F)cc(Cl)cc1N1CC[C@](N)(C(=O)NC2CC2)C1 [Example 33, (R)-3-amino-1-(2-((6-amino-9H-purin-9-yl)methyl)-5-chloro-3-((R)-2,2,2-trifluoro-1-hydroxyethyl)phenyl)-N-cyclopropylpyrrolidine-3-carboxamide] | 1900 to 3000 nM | > 3000 nM | 50 to 100 nM
2 | Nc1ncnc2c1ncn2Cc1c(N2CC[C@](N)(C(=O)NC3CC3)C2)ccc(C(F)(F)F)c1Br [Example 41, (R)-3-amino-1-(2-((6-amino-9H-purin-9-yl)methyl)-3-bromo-4-(trifluoromethyl)phenyl)-N-cyclopropylpyrrolidine-3-carboxamide] | < 1900 nM | < 2000 nM | < 50 nM
3 | Nc1ncnc2c1ncn2Cc1c(N2CC[C@](N)(C(=O)NC3CC3)C2)ccc(F)c1CN1CCCCC1 [Example 46] | < 1900 nM | < 2000 nM | 50 to 100 nM
4 | CN(C)Cc1c(C(F)(F)F)ccc(N2CC[C@](N)(C(=O)NC3CC3)C2)c1Cn1cnc2c(N)ncnc21 [Example 47] | < 1900 nM | < 2000 nM | < 50 nM
5 | CN(Cc1c(F)ccc(N2CC[C@](N)(C(=O)NC3CC3)C2)c1Cn1cnc2c(N)ncnc21)C1CC1 [Example 48] | < 1900 nM | 2000 to 3000 nM | > 100 nM
6 | CN(C)Cc1c(F)ccc(N2CC[C@](N)(C(=O)N[C@H]3C[C@@H]3c3ccccc3)C2)c1Cn1cnc2c(N)ncnc21 [Example 49] | < 1900 nM | < 2000 nM | < 50 nM
7 | Nc1ncnc2c1ncn2Cc1c(N2CC[C@](N)(C(=O)NC3CC3)C2)ccc(F)c1CN1CC[C@@H](F)C1 [Example 50] | < 1900 nM | < 2000 nM | < 50 nM
8 | Nc1ncnc2c1ncn2Cc1c(N2CC[C@](N)(C(=O)NC3CC3)C2)ccc(F)c1CN1CC(F)C1 [Example 53] | < 1900 nM | < 2000 nM | 50 to 100 nM
9 | Nc1ncnc2c1ncn2Cc1c(N2CC[C@](N)(C(=O)NC3CC3)C2)ccc(F)c1CNC1CC1 [Example 54] | < 1900 nM | < 2000 nM | > 100 nM
10 | Nc1ncnc2c1ncn2Cc1c(N2CC[C@](N)(C(=O)NC3CC3)C2)ccc(F)c1CN1CCC(F)(F)CC1 [Example 55] | < 1900 nM | < 2000 nM | 50 to 100 nM
11 | Nc1ncnc2c1ncn2Cc1c(N2CC[C@](N)(C(=O)NC3CC3)C2)ccc(F)c1CN1CCC(F)CC1 [Example 56] | < 1900 nM | < 2000 nM | 50 to 100 nM
12 | Nc1ncnc2c1ncn2Cc1c(N2CC[C@](N)(C(=O)NC3CC3)C2)ccc(F)c1CNCC(F)(F)F [Example 57] | < 1900 nM | < 2000 nM | 50 to 100 nM
13 | Nc1ncnc2c1ncn2Cc1c(N2CC[C@](N)(C(=O)NC3CC3)C2)ccc(F)c1CN1C[C@H]2CC[C@@H](C1)O2 [Example 58] | < 1900 nM | < 2000 nM | 50 to 100 nM
14 | CCN(Cc1c(F)ccc(N2CC[C@](N)(C(=O)NC3CC3)C2)c1Cn1cnc2c(N)ncnc21)C1CC1 [Example 59] | < 1900 nM | < 2000 nM | < 50 nM
15 | CN(C)Cc1c(Cl)ccc(N2CC[C@](N)(C(=O)NC3CC3)C2)c1Cn1cnc2c(N)ncnc21 [Example 60] | < 1900 nM | < 2000 nM | 50 to 100 nM
16 | Nc1ncnc2c1ncn2Cc1c(N2CC[C@](N)(C(=O)NC3CC3)C2)ccc(F)c1CN1CCCC1 [Example 61] | < 1900 nM | < 2000 nM | 50 to 100 nM
17 | CC1(C)CCN(Cc2c(F)ccc(N3CC[C@](N)(C(=O)NC4CC4)C3)c2Cn2cnc3c(N)ncnc32)C1 [Example 63] | < 1900 nM | < 2000 nM | > 100 nM

Further lines, results first:

Row | IC50 (H3K4me3 in MV4-11 cells) | IC50 (MV4-11 cells) | IC50 [1] | Compound
18 | < 1900 nM | < 2000 nM | 50 to 100 nM | CC1CN(Cc2c(F)ccc(N3CC[C@](N)(C(=O)NC4CC4)C3)c2Cn2cnc3c(N)ncnc32)C1 [Example 64]
19 | < 1900 nM | < 2000 nM | < 50 nM | Nc1ncnc2c1ncn2Cc1c(N2CC[C@](N)(C(=O)NC3CC3)C2)ccc(F)c1CN1CCC(F)(F)C1 [Example 66]
20 | < 1900 nM | < 2000 nM | 50 to 100 nM | CCN(CC)Cc1c(F)ccc(N2CC[C@](N)(C(=O)NC3CC3)C2)c1Cn1cnc2c(N)ncnc21 [Example 67]
21 | < 1900 nM | < 2000 nM | < 50 nM | Nc1ncnc2c1ncn2Cc1c(N2CC[C@](N)(C(=O)NC3CC3)C2)ccc(F)c1CN1CC[C@H](F)C1 [Example 68]
22 | < 1900 nM | < 2000 nM | 50 to 100 nM | Nc1ncnc2c1ncn2Cc1c(N2CC[C@](N)(C(=O)NC3CC3)C2)ccc(F)c1CN1CCCC(F)(F)C1 [Example 69]
23 | < 1900 nM | < 2000 nM | > 100 nM | CCc1c(Cl)cc(Cl)c(N2CC[C@](N)(C(=O)N3CCS(=O)(=O)CC3)C2)c1Cn1cnc2c(N)ncnc21 [Example 73]
24 | < 1900 nM | 2000 to 3000 nM | 50 to 100 nM | Nc1ncnc2c1ncn2Cc1c(N2CC[C@](N)(C(=O)NC3CC3)C2)ccc(F)c1CO [Example 76, (R)-3-amino-1-(2-((6-amino-9H-purin-9-yl)methyl)-4-fluoro-3-(hydroxymethyl)phenyl)-N-cyclopropylpyrrolidine-3-carboxamide]
25 | < 1900 nM | < 2000 nM | 50 to 100 nM | COCc1c(F)ccc(N2CC[C@](N)(C(=O)NC3CC3)C2)c1Cn1cnc2c(N)ncnc21 [Example 77, (R)-3-amino-1-(2-((6-amino-9H-purin-9-yl)methyl)-4-fluoro-3-(methoxymethyl)phenyl)-N-cyclopropylpyrrolidine-3-carboxamide]
26 | < 1900 nM | < 2000 nM | < 50 nM | COCc1c(Cl)ccc(N2CC[C@](N)(C(=O)NC3CC3)C2)c1Cn1cnc2c(N)ncnc21 [Example 78]
27 | < 1900 nM | < 2000 nM | 50 to 100 nM | Nc1ncnc2c1ncn2Cc1c(N2CC[C@](N)(C(=O)NC3CC3)C2)ccc(Cl)c1COC1CCOC1 (stereo partly drawn) [Example 79]
28 | < 1900 nM | < 2000 nM | 50 to 100 nM | [2H]C([2H])([2H])OCc1c(F)ccc(N2CC[C@](N)(C(=O)NC3CC3)C2)c1Cn1cnc2c(N)ncnc21 [Example 80]
29 | < 1900 nM | < 2000 nM | < 50 nM | [2H]C([2H])([2H])OCc1c(Cl)ccc(N2CC[C@](N)(C(=O)NC3CC3)C2)c1Cn1cnc2c(N)ncnc21 [Example 81]
